Reference: patent publication US8507674B2, “Quorum sensing inhibitor” (The University of Tokyo, priority 2007, dated 2013)

Tests used:
[1] = system: Burkholderia glumae; assay: Test Example 9: amount of toxoflavin produced in culture solution, with comparative compound; type: cell-based; details: 0, 20, 40, 60, 80 or 100 μM, shake culturing 20 hours, FIG. 6
Procedure: Burkholderia glumae was inoculated into an LB culture medium (produced by BD (Difco LB Broth: containing tryptone (10.0 g), yeast extract (5.0 g), and sodium chloride (10.0 g)), and cultured at 37° C. overnight. The thus-obtained culture solution was subjected to bacterial collection using a centrifuge, and washed with an LB culture medium twice using a fresh LB culture medium each time. To the bacterial cell a fresh LB culture medium was added, and then Compound (1) produced in Production Example 1 was added thereto in such a manner that its final concentration became a predetermined value (i.e., 0, 20, 40, 60, 80 or 100 μM), followed by shake culturing for 20 hours. The amount of toxoflavin produced by the bacterial cell in the culture solution was obtained by the following procedure.
Each culture solution was filtered by a 0.22-μm membrane filter, and 1 mL of the filtrate was isolated. One mL of chloroform was added to the filtrate, followed by extraction. The thus-obtained chloroform layer was concentrated under reduced pressure, and an 80% (V/V) an aqueous methanol solution was added to and dissolved in the residue. The absorbance (at 260 nm) of the solution was measured, and the toxin doses were calculated from the calibration curve, which was obtained using chemically synthesized standard toxin. […]

[2] = system: (gfp expression PAO1-strain); assay: Test Example 7: biofilm formation inhibition in flow cell system; type: cell-based, Burkholderia aeruginosa; details: test liquid at 200 μL per minute, observed up to 84 hours by confocal microscope, FIG. 5
Procedure: Using the flow cell system shown in FIG. 4, the […] aeruginosa biofilm formation inhibition effect of Compound (2), which was produced using Production Example 2, was evaluated.
A culture medium bottle (1), peristaltic pump (2), glass cell (4) and waste fluid bottle (5) are connected via a silicon tube (6) so that a culture medium (9) is supplied to the glass cell (4) from the culture medium bottle (1) using the peristaltic pump (2). The system includes an air removal section (3) between the peristaltic pump (2) and a turncock (7a) for removing entrained air. All components in the flow cell system were sterilized using gamma rays or an autoclave.
As described later, the inhibitory effect against biofilm formation of each of the compounds can be examined in the following manner. Bacteria are cultured in a glass cell (4) to grow a biofilm on the inner wall of the cell, and a test liquid containing one of the compounds is applied to the biofilm. Then the state of the biofilm is observed to evaluate the inhibitory effect against biofilm formation of the compound using a spectral confocal and multiphoton microscope (Leica TCS SP2: produced by Leica). […]

[3] = system: Porphyromonas gingivalis 381-strain; assay: Test Example 8: biofilm formation inhibition on hydroxyapatite disks in flow cell system; type: cell-based
Procedure: Using the flow cell system shown in FIG. 4, the Porphyromonas gingivalis biofilm formation inhibition effect of Compound (2), which was produced in Production Example 2, was evaluated.
Bacteria: Periodontitis pathogenic bacteria Porphyromonas gingivalis 381-strain (clinical strain) were used.
Culture Medium: A GAM culture medium containing […] and 1 μg/L menadione was used.
Bacterial Suspension The 381-strain was inoculated into the GAM culture medium, and cultivated until the stationary phase (OD550=1.8). Then the culture medium was diluted 20-fold by the GAM culture medium described above.
Test liquid: The test liquid was prepared by dissolving Compound (2) into DMSO to obtain 100 μM of DMSO solution of Compound (2). […]
After the cultivation, the HA disks were dipped in 300 μL of sterile distilled water, and treated by supersonic waves for 30 minutes at 4° C. […] Then, the turbidity of 10 μL of the suspension liquid was measured with an absorptiometer (C07500 calorimeter, produced by Funakoshi) (measurement wavelength=550 nm).
A mean OD was found based on the resulting OD values, excluding the minimum and maximum values. Likewise, the turbidity of the control test liquid was obtained and determined as a control OD value, and then the control mean OD value was found in the same manner. […]

[4] = system: Burkholderia glumae; assay: Test Example 2: number of microorganisms in culture solution (colony count); type: cell-based; details: final concentration 100 μM, after 36 hours of cultivation, FIG. 1
Procedure: Burkholderia glumae was inoculated into an LB culture medium, and cultured at 37° C. overnight. The thus-obtained culture solution was subjected to bacterial collection using a centrifuge, washed with an LB culture medium twice using a fresh LB culture medium each time. To the bacterial cell a fresh LB culture medium was added to prepare a culture suspension of about 3.0×10^5 cfu/mL. Thereafter, each of Compound (1), Compound (2), Compound (3), Compound (4), Compound (5), Compound (8) and Compound (9) produced in Production Examples 1-5 were added to the culture suspension in such a manner that their final concentration became 100 μM, followed by shake culturing for 36 hours. The number of microorganisms in the culture solution 24 hours and 36 hours after the initiation of the culturing were obtained by the following procedure. Specifically, a portion of the culture solution was removed and diluted 1,000-fold, and then seeded to an LB culture medium agar plate. The number of colonies were counted to obtain the number of microorganisms.
The same experiments were conducted, as comparative tests, using Comparative Compounds (1)-(3), which were produced in Reference Examples 1-3 and the below-explained compound (Comparative Compound (4)), which is disclosed in Patent Document 1, thereby obtaining the number of microorganisms.

`CCCCCCCCCC(=O)CC(=O)Nc1ccccc1O` [Comparative Compound (5), reference compound] was tested. Which “toxin doses produced by bacteria (toxoflavin)” value [1] did it give?
Its value is “almost no change”.

How did the “biofilm formation on inner wall of glass cell” value [2] turn out when `CCCCCc1cc(=O)n2cccc(O)c2n1` [Compound (2), 9-hydroxy-2-n-pentyl-4H-pyrid[1,2-a]pyrimidin-4-one] was run?
Its value is “biofilm formation was not observed”.

What about the “Mean OD Value” ([3]; 100 μM, 14 days circulation, turbidity of biofilm suspension at 550 nm) of the same molecule?
The value was 0.041.

What about the inhibition at 100 µM ([3]; Porphyromonas gingivalis, 381STRAIN, 336 h, read-out: Inhibition Rate (%) (biofilm formation inhibition rate)) of the same molecule?
Its inhibition at 100 µM is 56.4%.

How did the “control activity against Burkholderia glumae (number of microorganisms)” value [4] turn out when `CCc1cc(=O)n2cccc(O)c2n1` [Compound (8), 9-hydroxy-2-ethyl-4H-pyrid[1,2-a]pyrimidin-4-one] was run?
Its value is “can kill almost all Burkholderia glumae”.

For `CCCCc1cc(=O)n2cccc(O)c2n1` [Compound (9), 9-hydroxy-2-n-butyl-4H-pyrid[1,2-a]pyrimidin-4-one], which “control activity against Burkholderia glumae (number of microorganisms)” value [4] is on record?
The value was “can kill almost all Burkholderia glumae”.
